Laboratory results as given in PubChem BioAssay AID1963434 (Molecular Pharmacology Branch, DTP, NCI, 2024).

System: 755483-174-R-J1-PDC complex spheroid growth, percent test/control
Test: Anticancer human tumor 755483-174-R-J1-PDC patient-derived rhabdomyosarcoma cell line growth inhibition [Asc]
Settings: for IC50: curve of first compound; for viability, T/C: stronger effect = lower value
In short: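 Spheroid model: tumor line + HUVEC + hMSC. Single agents and combinations; top conc. at/near clinical Cmax (10 microM if undetermined), half-log dilutions. DMSO stocks at 800-fold test concentration.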
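Also: spheroids exposed to compounds for seven days before readout.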

`NC(=O)C(=Cn1cnc(-c2cc(C(F)(F)F)cc(C(F)(F)F)c2)n1)c1cncnc1` + CCN1C(C(=O)NC23CCC(C(=O)O)(CC2)CC3)C(c2cccc(Cl)c2F)C2(C(=O)Nc3cc(Cl)ccc32)C12CCCCC2 was tested, and the IC50 (second compound 0.03 µM) was 4.97 nM, the IC50 (second compound 0.0949 µM) was 3.99 nM and the IC50 (second compound 0.3 µM) was 6.47 nM. For the same compound, the IC50 (second compound 0.949 µM) was 5.41 nM, the IC50 (second compound 3 µM) was 3.15 nM and the viability, T/C (second compound 0.03 µM, first compound 0.000949 µM) was 92%. For the same compound, the viability, T/C (second compound 0.03 µM, first compound 0.003 µM) was 71.4%, the viability, T/C (second compound 0.03 µM, first compound 0.00949 µM) was 22.4% and the viability, T/C (second compound 0.03 µM, first compound 0.03 µM) was 12.8%. The viability, T/C (second compound 0.03 µM, first compound 0.0949 µM) was 7.75%, the viability, T/C (second compound 0.03 µM, first compound 0.3 µM) was 7.18% and the viability, T/C (second compound 0.0949 µM, first compound 0.000949 µM) was 84%. For the same compound, the viability, T/C (second compound 0.0949 µM, first compound 0.003 µM) was 56%, the viability, T/C (second compound 0.0949 µM, first compound 0.00949 µM) was 31.7% and the viability, T/C (second compound 0.0949 µM, first compound 0.03 µM) was 14.7%. It also gave a viability, T/C (second compound 0.0949 µM, first compound 0.0949 µM) of 8.83%, a viability, T/C (second compound 0.0949 µM, first compound 0.3 µM) of 5.38% and a viability, T/C (second compound 0.3 µM, first compound 0.000949 µM) of 74.2%. It also gave a viability, T/C (second compound 0.3 µM, first compound 0.003 µM) of 75.5%, a viability, T/C (second compound 0.3 µM, first compound 0.00949 µM) of 37.6% and a viability, T/C (second compound 0.3 µM, first compound 0.03 µM) of 13.3%. It also gave a viability, T/C (second compound 0.3 µM, first compound 0.0949 µM) of 7.32%, a viability, T/C (second compound 0.3 µM, first compound 0.3 µM) of 4.64% and a viability, T/C (second compound 0.949 µM, first compound 0.000949 µM) of 83.9%. For the same compound, the viability, T/C (second compound 0.949 µM, first compound 0.003 µM) was 66.7%, the viability, T/C (second compound 0.949 µM, first compound 0.00949 µM) was 34.4% and the viability, T/C (second compound 0.949 µM, first compound 0.03 µM) was 11.9%. The viability, T/C (second compound 0.949 µM, first compound 0.0949 µM) was 8.43%, the viability, T/C (second compound 0.949 µM, first compound 0.3 µM) was 5.55% and the viability, T/C (second compound 3 µM, first compound 0.000949 µM) was 72.8%. It also gave a viability, T/C (second compound 3 µM, first compound 0.003 µM) of 49.2%, a viability, T/C (second compound 3 µM, first compound 0.00949 µM) of 32.9% and a viability, T/C (second compound 3 µM, first compound 0.03 µM) of 16%. It also gave a viability, T/C (second compound 3 µM, first compound 0.0949 µM) of 5.81% and a viability, T/C (second compound 3 µM, first compound 0.3 µM) of 6.67%.
